Measurements reported in patent publication US11667632B2, “2-(1H-indazol-3-yl)-3H-imidazo[4,5-C]pyridines and their anti-inflammatory uses thereof” (BioSplice Therapeutics, Inc., priority 2015, dated 2023).

Assay: Persistence and half-life of radiolabeled Compound 10 in rat knee joints
Assay type: in vivo
Conditions: SD rats
Description: […] These same animals were used for the QWBA experiments (above).
On Day 180, only about ˜6.6% of administered dose was detected.

[1] = time points Days 14-90 only, excluding Day 180

**Q.** Which “mean % of administered dose per knee” value (1 μg/knee IA, Day 14) does the source give for `CC(C)CC(=O)Nc1cncc(-c2ccc3[nH]nc(-c4nc5c(-c6cccc(F)c6)cncc5[nH]4)c3c2)c1` [Compound 10] here?
**A.** Its value is 64%.

**Q.** And the “mean % of administered dose per knee” value (1 μg/knee IA, Day 30)?
**A.** The value was 54%.

**Q.** And the “mean % of administered dose per knee” value (1 μg/knee IA, Day 60)?
**A.** Its value is 42%.

**Q.** And the “mean % of administered dose per knee” value (1 μg/knee IA, Day 90)?
**A.** The value was 38%.

**Q.** And the “% of administered dose detected in knee joint” value (1 μg/knee IA, Day 180)?
**A.** The value was ~6.6%.

**Q.** And the “detection in the knee joint space (radiographic images)” value (Day 180)?
**A.** The value was “still detectable”.

**Q.** What about the “elimination rate constant, Ke” value (all time points, Days 14-180) of the same compound?
**A.** The value was 0.01342.

**Q.** And the “half-life (T1/2) in the knee joint” value (all time points, Days 14-180)?
**A.** Its value is 51.64 days.

**Q.** And the “elimination rate constant, Ke” value [1]?
**A.** Its value is 0.00687.

**Q.** What about the “half-life (T1/2) in the knee joint” value [1] of the same compound?
**A.** The value was 100.9 days.

**Q.** What about the “administered radioactivity recovered in each knee joint” value (two IA injections at 1 μg/knee, 1 h post-IA injection up to 168 h) of the same compound?
**A.** The value was 60-85%.
